Results from the supplement of paper PMC10949913.

Columns and labels:
Settings in all cases: 48 h
CU-ACC1 [1] = assay: AC50 viability; higher = less potent
How it was run: (§1)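 AC50 and area under the curve values derive from fitted concentration-response curves, restricted to inhibitory or non-responding curve classes. The curves came from three adrenocortical carcinoma cell lines in 1,536-well plates, each receiving 23 nL of every library compound at 11 concentrations. Viability was read by CellTiter-Glo luminescence after 48 h, normalised per plate to vehicle and empty-well controls.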

CU-ACC1 [2] = assay: area under concentration-response curve (viability) (AUC (a.u.)); higher = less active
How it was run: as §1

NCI-H295R [3] = assay: as above
How it was run: as §1

NCI-H295R [4] = assay: AC50 viability; higher = less potent
How it was run: as §1

CU-ACC2 = assay: area under concentration-response curve (viability) (AUC (a.u.)); higher = less active
How it was run: as §1

| SMILES | AC50 viability (CU-ACC1 [1]) | area under concentration-response curve (CU-ACC1 [2]) | area under concentration-response curve (NCI-H295R [3]) | AC50 viability (NCI-H295R [4]) | area under concentration-response curve (CU-ACC2) |
| --- | --- | --- | --- | --- | --- |
| CC(C)[N]1C=C(C)C2=C1C=C(C=C2C(=O)NC\C3=C(C)\C=C(C)/NC3=O)C4=CC=C(N=C4)N5CCN(C)CC5 | 23.5 µM | 491 | – | – | – |
| COc1cccc2c1CCCC2CCCN1CCN(C2CCCCC2)CC1 (stereo unspecified) | 16.6 µM | 501 | – | – | – |
| N[C@@H]1C[C@H]1c1ccccc1 | 0.00186 µM | 341 | 353 | – | – |
| CC1=C(OC2=CC3=NC=N[N]3C=C2)C=CC(=C1)NC4=NC=NC5=C4C=C(N\C6=N\C(C)(C)CO6)C=C5 | 0.00296 µM | 402 | – | – | – |
| N#CC1(c2cccc(C(=O)Nc3cc(Oc4ccc5nc(NC(=O)C6CC6)sc5n4)ccc3F)c2Cl)CC1 | 4.17 µM | 390 | – | – | – |
| COc1ccccc1N1CCN(CCN(C(=O)C2CCCCC2)c2ccccn2)CC1 | 20.9 µM | 351 | 378 | – | – |
| CN(C)CCCN\C1=C\2C(=O)N(C)C(=O)\N=C2N(C)C3=C1C=CC=C3 | 18.6 µM | 501 | – | – | – |
| CN1CC[C@H]([C@@H]1CO)C2=C3OC(=C/C(=O)C3=C(O)C=C2O)\C4=C(Cl)C=C(C=C4)C(F)(F)F | 14.8 µM | 477 | 538 | – | – |
| C[C@](O)(COc1ccc(C#N)cc1)C(=O)Nc1ccc(C#N)c(C(F)(F)F)c1 | 0.00118 µM | 322 | 248 | – | – |
| CCOC1=CC(=CC=C1C/2=N/[C@@](C)(C3=CC=C(Cl)C=C3)[C@](C)(N2C(=O)N4CCN(CC4)CC(=O)N5CCOCC5)C6=CC=C(Cl)C=C6)C(C)(C)C | 16.3 µM | 440 | – | – | – |
| O=C(/C=C/c1ccc(Cl)cc1)N1CCC2(CC1)CN(Cc1ccc(Cl)c(Cl)c1)C(=O)O2 | 20.9 µM | 432 | – | – | – |
| Cc1cc(C)c(C/N=C(\O)c2cc(-c3ccc(N4CCN(C)CC4)nc3)cc3c2c(C)cn3C(C)C)c(O)n1 | 29.5 µM | 490 | – | – | – |
| O=C(NO)c1cnc(NC2(c3cccc(F)c3)CCCCC2)nc1 | 20.9 µM | 474 | 538 | – | – |
| CC(C)c1c(C(=O)Nc2ccccc2)c(-c2ccccc2)c(-c2ccc(F)cc2)n1CC[C@@H](O)C[C@@H](O)CC(=O)O | 6.45 µM | 544 | 635 | – | – |
| O=C(O)[C@H](O)[C@@H](O)[C@H](O[C@@H]1O[C@H](CO)[C@H](O)[C@H](O)[C@H]1O)[C@H](O)CO | 0.00118 µM | 342 | 307 | – | – |
| CCCCCNC(=N)N/N=C/c1c[nH]c2ccc(OC)cc12 | 14.8 µM | 416 | – | – | – |
| CN(C)CCN1C(=O)c2cccc3cc(N)cc(c23)C1=O | 26.3 µM | 452 | – | – | – |
| C[S+](=O)([O-])c1ccc(-c2cnc(NCc3ccco3)n3cnnc23)cc1 | 2.09 µM | 357 | – | – | – |
| C[C@@H](Nc1cc(F)cc(F)c1)c1cc(C(=O)N(C)C)cc2c(=O)cc(N3CCOCC3)oc12 | 13.2 µM | 466 | – | – | – |

| SMILES | AC50 viability (CU-ACC1 [1]) | area under concentration-response curve (CU-ACC1 [2]) | area under concentration-response curve (NCI-H295R [3]) | AC50 viability (NCI-H295R [4]) | area under concentration-response curve (CU-ACC2) |
| --- | --- | --- | --- | --- | --- |
| Nc1ncnc(Nc2ccc(OCc3ccccc3)c(Cl)c2)c1/C=N/OCCN1CCOCC1 | 20.9 µM | 324 | – | – | – |
| ClC1=C[NH]N=C1C\2NC(=N\C3=C2C(=O)CCC3)/NC4=NC5=CC=CC=C5O4 (stereo unspecified) | 41.7 µM | 426 | – | – | – |
| CN(C)Cc1cccc(N/C(=C2\C(=O)Nc3cc(C(N)=O)ccc32)c2ccccc2)c1 | 23.5 µM | 420 | – | – | – |
| O=C(N[C@H]1CCC[C@H](CO)C1)C1CCN(c2nc3cc(Cl)c(-c4ccc(Cl)cc4)cc3o2)CC1 | 20.9 µM | 484 | – | – | – |
| CCN(CC)CCCCNc1nc2cc(Cl)c(Cl)cc2nc1-c1ccc(-c2cccs2)s1 | 23.5 µM | 451 | – | – | – |
| CN(C)CCCOc1ccc(-c2ccc3ncc4c(c3c2)n(C2CCOCC2)c(=O)n4C)cn1 | 11.5 µM | 487 | – | – | – |
| CC1=CC=CC=C1CN2C(=O)C/3=C(/CCN(CC4=CC=CC=C4)C3)N\5CC\N=C25 | 6.61 µM | 313 | – | – | – |
| Cc1c(NC(=O)OCC2COCCN2)cn2ncnc(Nc3ccc4c(cnn4Cc4cccc(F)c4)c3)c12 (stereo unspecified) | 23.5 µM | 433 | – | – | – |
| CCN(CC)CCNC(=O)c1c(C)[nH]c(/C=C2\C(=O)Nc3ccc(F)cc32)c1C | – | 528 | 456 | 9.34 µM | 529 |
| O=C1S/C(=C\c2ccc(OCc3cccc(B(O)O)c3)cc2)C(=O)N1Cc1ccc(F)cc1 | – | 442 | 463 | 13.2 µM | 488 |
| C[C@@H]1C[C@H]2[C@@H]3\C=C(C)/C4=C/C5=C(C[C@]4(C)[C@H]3[C@@H](O)C[C@]2(C)[C@@]1(O)C(=O)COC(C)=O)C=N[N]5C6=CC=CC=C6 | – | 513 | 529 | 20.9 µM | 608 |
| CCN1CCN(CC1)CC(=O)NC2=CC=C(C3=C2C4=C(S3)C=CC=C4)C5=C6O\C(=C/C(=O)C6=CC=C5)N7CCOCC7 | – | 555 | 494 | 2.57 µM | 610 |
| CC(=O)N1CCN(CCOC2=CC=C(C=C2)C3CCN(CC3)/C4=N/[N]5C(=NN=C5C(F)(F)F)CC4)CC1 | 11.8 µM | 430 | – | – | – |
| COC(=O)Nc1nc2cc(C(=O)c3ccccc3)ccc2[nH]1 | – | 440 | 412 | 0.417 µM | 475 |
| COC[C@H]1OC(=O)C2=COC3=C2[C@@]1(C)\C4=C(\[C@@H]5CC[C@H](O)[C@@]5(C)C[C@H]4OC(C)=O)C3=O | 4.17 µM | 311 | – | – | – |
| COc1cc([C@@H]2c3cc4c(cc3[C@H](O)[C@H]3COC(=O)[C@H]23)OCO4)cc(OC)c1OC | – | 452 | 359 | 0.0209 µM | 464 |
| CC(=O)c1cnc2ccc(-c3cc(Cl)c(O)c(Cl)c3)nc2c1N[C@H]1CC[C@H](CN(C)C)CC1 | – | 491 | 373 | 0.959 µM | 433 |
| Oc1ccc([C@@H]2Oc3ccc(O)cc3[C@@H]3CCC[C@@H]32)cc1 | – | 485 | 500 | 13.2 µM | 535 |
| OCCOc1ccc(/C(=C(/CCCl)c2ccccc2)c2ccccc2)cc1 | 23.5 µM | 470 | – | – | – |

| SMILES | AC50 viability (CU-ACC1 [1]) | area under concentration-response curve (CU-ACC1 [2]) | area under concentration-response curve (NCI-H295R [3]) | AC50 viability (NCI-H295R [4]) | area under concentration-response curve (CU-ACC2) |
| --- | --- | --- | --- | --- | --- |
| COc1cc([C@@H]2c3cc4c(cc3[C@H](O)[C@H]3COC(=O)[C@@H]23)OCO4)cc(OC)c1OC | – | 504 | 453 | 0.934 µM | 467 |
| Cc1ncc(NC(=O)c2cccc(C(F)(F)F)c2)cc1-c1cnc(OC2CCOCC2)c(N2CCOCC2)c1 | – | 541 | 560 | 20.9 µM | 535 |
| C/C(=C\c1csc(C)n1)[C@@H]1C[C@@H]2O[C@]2(C)CCC[C@H](C)[C@H](O)[C@@H](C)C(=O)C(C)(C)[C@@H](O)CC(=O)N1 | – | 478 | 460 | 2.09 µM | 485 |
| COc1cc(N2CCC(N3CCN(C)CC3)CC2)ccc1Nc1ncnc(Nc2ccccc2[S+](=O)([O-])C(C)C)n1 | 0.00468 µM | 258 | – | – | – |
| COc1ccc(-c2ccc3c(N4CCOCC4)nc(N4C[C@@H](C)O[C@@H](C)C4)nc3n2)cc1CO | – | 464 | 468 | 0.934 µM | 469 |
| O=C(NC1CC1)c1cccc(-c2ccc3c(NC(=O)C4CC4)n[nH]c3c2)c1 | – | 495 | 496 | 20.9 µM | 542 |
| CCC[C@H](N[C@H]1CCc2cc(F)cc(F)c2C1)C(=O)Nc1cn(C(C)(C)CNCC(C)(C)C)cn1 | – | 522 | 455 | 23.5 µM | 584 |
| C[N]1N=CC2=C1C=C(C(=C2)OC3=CC=C(NC(=O)\C4=C\C=C(\C)N(C4=O)C5=CC=C(F)C=C5)C=C3F)C6=C[NH]N=C6 | – | 508 | 539 | 7.42 µM | 626 |
| CC[C@]1(O)C[C@H]2CN(CCC3=C([NH]C4=C3C=CC=C4)[C@@](C2)(C(=O)OC)C5=CC6=C(C=C5OC)N(C=O)[C@H]7[C@](O)([C@H](OC(C)=O)[C@]8(CC)\C=C/CN9CC[C@]67[C@H]89)C(=O)OC)C1 | – | 504 | 471 | 3.32 µM | 590 |
| CC(/C=C/[C@@H]1C[C@]1(C)c1ccc2c(c1)C(C)(C)CCC2(C)C)=C\C(=O)O | – | 525 | 538 | 18.6 µM | 650 |
| CCOc1ccc(Nc2nc(-c3c(C)nc4ccccn34)cs2)cc1 | – | 493 | 487 | 2.95 µM | 497 |
| Cc1ccc([S+](=O)([O-])Nc2cc(-c3ccc(C#N)s3)ccc2C)cc1 | – | 506 | 373 | 0.0417 µM | 507 |
| COc1ccc(-n2c(SCCCN3C(=O)c4cccc5cccc(c45)C3=O)nnc2-c2ccncc2)cc1 | – | 422 | 406 | 3.32 µM | 406 |
| C[C@@]1(C(=O)Nc2ccc(F)nc2)CCCN1c1nc(Nc2cc(C3CC3)[nH]n2)c2cccn2n1 | – | 505 | 375 | 0.148 µM | 480 |
| CCCCc1oc2ccc(N[S+](C)(=O)[O-])cc2c1C(=O)c1ccc(OCCCN(CCCC)CCCC)cc1 | – | 477 | 486 | 7.42 µM | 563 |
| NC(=O)[C@@H](CCC(F)(F)F)N(Cc1ccc(-c2ncon2)cc1F)[S+](=O)([O-])c1ccc(Cl)cc1 | – | 441 | 469 | 20.9 µM | 476 |
| C[C@H](NC1=C2N=C[NH]C2=NC=N1)C/3=C/C4=C(C(=CC=C4)Cl)C(=O)N3C5=CC=CC=C5 | 20.9 µM | 447 | – | – | – |
| Cc1[nH]c2ccccc2c1CCNCc1ccc(/C=C/C(=O)NO)cc1 | – | 378 | 376 | 4.17 µM | 403 |
| COc1ccc(-c2ccc3c(N4CCOC[C@@H]4C)nc(N4CCOC[C@@H]4C)nc3n2)cc1CO | – | 431 | 387 | 0.417 µM | 485 |
